Assay results from ChEMBL document CHEMBL3045600, “Synthesis and Fungicidal Activities of Phenoxyphenyl Alkoxyiminoacetamide Derivatives” (J Pestic Sci, 1998).

Tests used:
[1] = test system: Pseudoperonospora cubensis; test: Fungicidal activity against Pseudoperonospora cubensis assessed as cucumber downy mildew disease control at 125 ppm foliar application 24 hr after inoculation on upper surface of leaf by curative manner; format: functional
Sclerotinia sclerotiorum = test: Fungicidal activity against Sclerotinia sclerotiorum assessed as inhibition of mycelial growth by agar dilution method; format: functional, organism-based
Colletotrichum lagenaria = test: Fungicidal activity against Colletotrichum lagenaria assessed as inhibition of mycelial growth by agar dilution method; format: functional, organism-based
Podosphaera fuliginea [2] = test: Fungicidal activity against Podosphaera fuliginea assessed as cucumber powdery mildew control under greenhouse at 125 ppm foliar application 24 hr before inoculation on upper surface of leaf at 23 +/- 2 degC by preventive manner; format: functional
Cladosporium herbarum = test: Fungicidal activity against Cladosporium herbarum assessed as inhibition of mycelial growth by agar dilution method; format: functional, organism-based
[3] = test system: Colletotrichum gloeosporioides; test: Fungicidal activity against Glomerella cingulata assessed as inhibition of mycelial growth by agar dilution method; format: functional, organism-based
Podosphaera fuliginea [4] = test: Fungicidal activity against Podosphaera fuliginea assessed as cucumber powdery mildew control under greenhouse at 31.3 ppm foliar application 24 hr before inoculation on upper surface of leaf at 23 +/- 2 degC by preventive manner; format: functional
Podosphaera fuliginea [5] = test: Fungicidal activity against Podosphaera fuliginea assessed as cucumber powdery mildew control under greenhouse at 2 ppm foliar application 24 hr after inoculation on upper surface of leaf at 23 +/- 2 degC by curative manner; format: functional
Pyricularia oryzae [6] = test: Fungicidal activity against Magnaporthe oryzae assessed as inhibition of mycelial growth by agar dilution method; format: functional, organism-based
Pyricularia oryzae [7] = test: Fungicidal activity against Magnaporthe oryzae assessed as rice blast disease control at 0.63 ppm submerged application measured after 7 days; format: functional
Pythium aphanidermatum = test: Fungicidal activity against Pythium aphanidermatum assessed as inhibition of mycelial growth by agar dilution method; format: functional, organism-based
Podosphaera fuliginea [8] = test: Fungicidal activity against Podosphaera fuliginea assessed as cucumber powdery mildew control under greenhouse at 7.8 ppm foliar application 24 hr before inoculation on upper surface of leaf at 23 +/- 2 degC by preventive manner; format: functional
Botrytis cinerea [9] = test: Fungicidal activity against Botryotinia fuckeliana assessed as cucumber gray mold disease control at 7.8 ppm foliar application 24 hr after inoculation at 22 +/- 2 degC measured after 3 days by curative manner; format: functional
[10] = test system: Pseudoperonospora cubensis; test: Fungicidal activity against Pseudoperonospora cubensis assessed as cucumber downy mildew disease control at 7.8 ppm foliar application 24 hr before inoculation on upper surface of leaf by preventive manner; format: functional
Botrytis cinerea [11] = test: Fungicidal activity against Botryotinia fuckeliana assessed as cucumber gray mold disease control at 125 ppm foliar application 24 hr before inoculation at 22 +/- 2 degC measured after 3 days by preventive manner; format: functional
Pyricularia oryzae [12] = test: Fungicidal activity against Magnaporthe oryzae assessed as rice blast disease control at 0.16 ppm submerged application measured after 7 days; format: functional
Podosphaera fuliginea [13] = test: Fungicidal activity against Podosphaera fuliginea assessed as cucumber powdery mildew control under greenhouse at 125 ppm foliar application 24 hr after inoculation on upper surface of leaf at 23 +/- 2 degC by curative manner; format: functional
Podosphaera fuliginea [14] = test: Fungicidal activity against Podosphaera fuliginea assessed as cucumber powdery mildew control under greenhouse at 31.3 ppm foliar application 24 hr after inoculation on upper surface of leaf at 23 +/- 2 degC by curative manner; format: functional
Pyricularia oryzae [15] = test: Fungicidal activity against Magnaporthe oryzae assessed as rice blast disease control at 2.5 ppm submerged application measured after 7 days; format: functional
[16] = test system: Pseudoperonospora cubensis; test: Fungicidal activity against Pseudoperonospora cubensis assessed as cucumber downy mildew disease control at 31.3 ppm foliar application 24 hr after inoculation on upper surface of leaf by curative manner; format: functional
[17] = test system: Pseudoperonospora cubensis; test: Fungicidal activity against Pseudoperonospora cubensis assessed as cucumber downy mildew disease control at 2 ppm foliar application 24 hr after inoculation on upper surface of leaf by curative manner; format: functional
Botrytis cinerea [18] = test: Fungicidal activity against Botryotinia fuckeliana assessed as cucumber gray mold disease control at 2 ppm foliar application 24 hr after inoculation at 22 +/- 2 degC measured after 3 days by curative manner; format: functional
Athelia rolfsii = test: Fungicidal activity against Athelia rolfsii assessed as inhibition of mycelial growth by agar dilution method; format: functional, organism-based, Agroathelia rolfsii
Botrytis cinerea [19] = test: Fungicidal activity against Botryotinia fuckeliana assessed as cucumber gray mold disease control at 31.3 ppm foliar application 24 hr after inoculation at 22 +/- 2 degC measured after 3 days by curative manner; format: functional
[20] = test system: Pseudoperonospora cubensis; test: Fungicidal activity against Pseudoperonospora cubensis assessed as cucumber downy mildew disease control at 7.8 ppm foliar application 24 hr after inoculation on upper surface of leaf by curative manner; format: functional
Pyricularia oryzae [21] = test: Fungicidal activity against Magnaporthe oryzae assessed as rice blast disease control at 10 ppm submerged application measured after 7 days; format: functional
Botrytis cinerea [22] = test: Fungicidal activity against Botryotinia fuckeliana assessed as cucumber gray mold disease control at 7.8 ppm foliar application 24 hr before inoculation at 22 +/- 2 degC measured after 3 days by preventive manner; format: functional
Podosphaera fuliginea [23] = test: Fungicidal activity against Podosphaera fuliginea assessed as cucumber powdery mildew control under greenhouse at 7.8 ppm foliar application 24 hr after inoculation on upper surface of leaf at 23 +/- 2 degC by curative manner; format: functional
Thanatephorus cucumeris [24] = test: Fungicidal activity against Thanatephorus cucumeris assessed as rice sheath blight disease control at 125 ppm foliar application for 24 hr before inoculation at 26 +- 2 measured after 5 days by preventive manner; format: functional
Botrytis cinerea [25] = test: Fungicidal activity against Botryotinia fuckeliana assessed as cucumber gray mold disease control at 31.3 ppm foliar application 24 hr before inoculation at 22 +/- 2 degC measured after 3 days by preventive manner; format: functional
[26] = test system: Pseudoperonospora cubensis; test: Fungicidal activity against Pseudoperonospora cubensis assessed as cucumber downy mildew disease control at 125 ppm foliar application 24 hr before inoculation on upper surface of leaf by preventive manner; format: functional
Fusarium oxysporum = test: Fungicidal activity against Fusarium oxysporum assessed as inhibition of mycelial growth by agar dilution method; format: functional, organism-based
Botrytis cinerea [27] = test: Fungicidal activity against Botryotinia fuckeliana assessed as cucumber gray mold disease control at 125 ppm foliar application 24 hr after inoculation at 22 +/- 2 degC measured after 3 days by curative manner; format: functional
Alternaria alternata = test: Fungicidal activity against Alternaria alternata apple pathotype assessed as inhibition of mycelial growth by agar dilution method; format: functional, organism-based
Botrytis cinerea [28] = test: Fungicidal activity against Botryotinia fuckeliana assessed as inhibition of mycelial growth by agar dilution method; format: functional, organism-based
[29] = test system: Pseudoperonospora cubensis; test: Fungicidal activity against Pseudoperonospora cubensis assessed as cucumber downy mildew disease control at 31.3 ppm foliar application 24 hr before inoculation on upper surface of leaf by preventive manner; format: functional
Thanatephorus cucumeris [30] = test: Fungicidal activity against Thanatephorus cucumeris assessed as rice sheath blight disease control at 7.8 ppm foliar application for 24 hr before inoculation at 26 +- 2 measured after 5 days by preventive manner; format: functional
Thanatephorus cucumeris [31] = test: Fungicidal activity against Thanatephorus cucumeris assessed as rice sheath blight disease control at 31.3 ppm foliar application for 24 hr before inoculation at 26 +- 2 measured after 5 days by preventive manner; format: functional

## CNC(=O)/C(=N/OC)c1ccccc1Oc1ccccc1 [METOMINOSTROBIN]
[1]
  Activity: 50%
Sclerotinia sclerotiorum
  EC50: 2 ppm
Colletotrichum lagenaria
  EC50: 4.7 ppm
Podosphaera fuliginea [2]
  Activity: 100%
Cladosporium herbarum
  EC50: 4.5 ppm
[3]
  EC50: 7.2 ppm
Podosphaera fuliginea [4]
  Activity: 100%
Podosphaera fuliginea [5]
  Activity: 50%
Pyricularia oryzae [6]
  EC50: 5.6 ppm
Pyricularia oryzae [7]
  Activity: 50%
Pythium aphanidermatum
  EC50: 2.8 ppm
Podosphaera fuliginea [8]
  Activity: 70%
Botrytis cinerea [9]
  Activity: 50%
[10]
  Activity: 30%
Botrytis cinerea [11]
  Activity: 95%
Pyricularia oryzae [12]
  Activity: 50%
Podosphaera fuliginea [13]
  Activity: 50%
Podosphaera fuliginea [14]
  Activity: 50%
Pyricularia oryzae [15]
  Activity: 50%
[16]
  Activity: 50%
[17]
  Activity: 50%
Botrytis cinerea [18]
  Activity: 50%
Athelia rolfsii
  EC50: 2.5 ppm
Botrytis cinerea [19]
  Activity: 50%
[20]
  Activity: 50%
Pyricularia oryzae [21]
  Activity: 50%
Botrytis cinerea [22]
  Activity: 73%
Podosphaera fuliginea [23]
  Activity: 50%
Thanatephorus cucumeris [24]
  Activity: 70%
Botrytis cinerea [25]
  Activity: 92%
[26]
  Activity: 100%
Fusarium oxysporum
  EC50: 6.2 ppm
Botrytis cinerea [27]
  Activity: 50%
Alternaria alternata
  EC50: 20.8 ppm
Botrytis cinerea [28]
  EC50: 1.1 ppm
[29]
  Activity: 100%
Thanatephorus cucumeris [30]
  Activity: 50%
Thanatephorus cucumeris [31]
  Activity: 70%
